Measurements taken from US10213450B2, “Combination of biologically active substances for treatment of hyperglycaemic disorders” (BioActive Food GmbH, priority 2014, dated 2019).

Key:
[1] = biological target: T1, lactase phlorizin hydrolase (LPH) (Homo sapiens, UniProt P09848); test: In vitro inhibition of LPH, phlorizin dihydrate as substrate, released glucose measured; format: biochemical
T1 construct: tissue of the human small intestine (0.6 mg/ml) expressing the LPH was used; from tissue; host or cells: human small intestine tissue
T1 sequence (P09848 869-1927): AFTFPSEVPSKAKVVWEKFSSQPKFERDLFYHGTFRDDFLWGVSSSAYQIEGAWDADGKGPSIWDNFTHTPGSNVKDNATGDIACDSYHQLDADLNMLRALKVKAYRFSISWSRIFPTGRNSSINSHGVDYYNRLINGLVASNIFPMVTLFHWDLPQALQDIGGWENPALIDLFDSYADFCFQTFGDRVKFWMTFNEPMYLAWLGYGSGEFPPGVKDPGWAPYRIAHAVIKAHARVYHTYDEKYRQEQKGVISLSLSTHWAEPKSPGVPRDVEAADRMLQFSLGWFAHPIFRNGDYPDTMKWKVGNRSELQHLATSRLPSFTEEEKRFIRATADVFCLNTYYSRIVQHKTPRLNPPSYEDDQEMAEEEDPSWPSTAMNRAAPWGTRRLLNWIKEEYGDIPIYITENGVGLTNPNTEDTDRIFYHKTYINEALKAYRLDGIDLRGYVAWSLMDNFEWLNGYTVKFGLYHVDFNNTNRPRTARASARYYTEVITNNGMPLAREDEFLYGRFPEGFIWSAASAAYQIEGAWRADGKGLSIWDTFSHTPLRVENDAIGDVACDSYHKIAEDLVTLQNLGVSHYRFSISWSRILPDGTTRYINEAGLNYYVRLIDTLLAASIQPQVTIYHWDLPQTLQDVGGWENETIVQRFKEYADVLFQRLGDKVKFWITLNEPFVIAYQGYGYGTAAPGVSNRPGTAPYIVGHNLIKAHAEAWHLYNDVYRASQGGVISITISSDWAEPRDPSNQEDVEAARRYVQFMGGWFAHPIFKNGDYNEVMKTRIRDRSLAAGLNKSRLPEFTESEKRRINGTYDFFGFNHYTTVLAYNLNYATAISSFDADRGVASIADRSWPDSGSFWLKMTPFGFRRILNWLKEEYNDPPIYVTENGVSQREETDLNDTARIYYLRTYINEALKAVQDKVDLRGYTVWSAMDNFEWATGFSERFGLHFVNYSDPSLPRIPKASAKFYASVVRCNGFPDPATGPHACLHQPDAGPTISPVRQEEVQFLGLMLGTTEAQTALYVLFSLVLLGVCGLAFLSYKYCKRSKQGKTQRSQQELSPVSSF
Procedure: Various quercetin and kaempferol derivates were tested in vitro as inhibitors of lactase phlorizin hydrolase (LPH). The testing was carried out according to Amiri et al. (2012, J Inherit Metab Dis, 35(6): 949-54). Here, tissue of the human small intestine (0.6 mg/ml) expressing the LPH was used. Phlorizin dihydrate served as the substrate. The released glucose was measured using a standard assay (Chu & Cheung, 1978, Clin Biochem, 11(4): 187-9).

[2] = biological target: T2, human SGLT1 (Homo sapiens, UniProt P13866); test: Ex vivo model: incubation with LPH-expressing human small intestine brush border membranes, then SGLT1 activity of supernatants by two-electrode voltage-clamp in Xenopus oocytes; format: cell-based; conditions: LPH inhibitor 10 μg/ml alone
T2 construct: expressed in transfected cells; host or cells: Xenopus oocytes
T2 sequence (P13866 1-664): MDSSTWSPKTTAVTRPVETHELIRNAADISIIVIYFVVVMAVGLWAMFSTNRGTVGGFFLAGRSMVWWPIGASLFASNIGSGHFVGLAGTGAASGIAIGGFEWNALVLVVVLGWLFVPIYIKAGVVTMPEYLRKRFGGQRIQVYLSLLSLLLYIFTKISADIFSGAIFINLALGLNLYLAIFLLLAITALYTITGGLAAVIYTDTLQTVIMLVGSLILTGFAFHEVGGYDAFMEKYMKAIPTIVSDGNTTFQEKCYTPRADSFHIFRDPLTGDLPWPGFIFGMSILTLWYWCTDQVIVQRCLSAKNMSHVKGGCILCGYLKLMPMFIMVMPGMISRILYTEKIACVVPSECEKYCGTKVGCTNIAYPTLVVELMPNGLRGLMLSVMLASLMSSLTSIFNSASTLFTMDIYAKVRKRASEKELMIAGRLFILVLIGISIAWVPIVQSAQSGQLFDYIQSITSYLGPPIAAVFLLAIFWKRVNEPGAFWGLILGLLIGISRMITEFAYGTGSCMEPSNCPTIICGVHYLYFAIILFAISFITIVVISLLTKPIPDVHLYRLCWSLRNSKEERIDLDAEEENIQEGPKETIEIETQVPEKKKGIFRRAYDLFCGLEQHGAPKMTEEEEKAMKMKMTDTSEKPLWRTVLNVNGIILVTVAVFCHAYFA
Procedure: The effect of a combination of phlorizin and a LPH inhibitor on the uptake of glucose by the SGLT 1 transporter was tested with an ex vivo model that simulates the situation in the human intestine. The ex vivo test model uses tissue from the human small intestine which expresses the lactase phlorizin hydrolase (LPH) and is thus able to cleave phlorizin and other glycosides. Subsequently, the reaction batches that had been pre-processed in this way were tested in an in vitro assay for their inhibitory effect on the SGLT1 transporter.
In summary, so-called “brush border membranes” were prepared from the small intestine and incubated in an appropriate buffer with phlorizin and/or the respective LPH inhibitor for 90 minutes.
Here, Xenopus oocytes were used which express the human SGLT1. The transport of glucose by SGLT1 can be measured because the combined transport of glucose and sodium by SGLT1 causes a current through the oocyte membrane. This current is determined electrophysiologically by a “two-electrode voltage-clamp” method. In this model, a reduction in the activity of the SGLT1 also results in a reduction of current across the cell membrane.

inhibition of the LPH ([1]; concentration of 50 mg/ml (as printed in text)) | Glucose uptake, inhibition ([2]; Batch A) [%] | Glucose uptake, inhibition ([2]; Batch B) [%] | inhibition at 100 µg/mL ([1]; 100 μg/ml inhibitor (stated in cell)) [%] | Structure (SMILES)
about 70% | 2 | 2.5 | – | O=c1c(O)c(-c2ccc(O)c(O)c2)oc2cc(OC3O[C@H](CO)[C@@H](O)[C@H](O)[C@H]3O)cc(O)c12 (stereo partly shown) [No. 3, 3,3′,4′,5,7-pentahydroxy flavone-7-glucoside]
– | – | – | 13.7 | O=c1c(OC2O[C@H](CO)[C@@H](O)[C@H](O)[C@H]2O)c(-c2ccc(O)c(O)c2)oc2cc(O)cc(O)c12 (stereo partly shown) [compound 2]
